In patent US8470805B2, “Processes for preparing piperazinium salts of KMUP and use thereof” (Kaohsiung Medical University, priority 2009, dated 2013):

Key:
C57BL/6J mice [1] = test: The lipid-lowering effect in C57BL/6J mice (high-fat diet); type: in vivo; conditions: HFD, after 21 days
Method: (§1) 8-week C57BL/6J mice are divided into standard diet (STD) group and the high-fat diet (HFD) group. In the HFD group, the KMUP-1 HCl salt (1, 2.5 and 5 mg/kg), the simvastatin (5 mg/kg), the KMUP-1-Nicotinic acid complex (1 and 5 mg/kg), the KMUP-1-Simvastatinic acid complex (1 and 5 mg/kg), KMUP-1-Gemfibrozil complex (2.5 mg/kg), KMUP-1-Fibric acid complex (2.5 mg/kg), KMUP-1-γ-polyglutamic acid complex (2.5 mg/kg) and KMUP-1-Citric acid complex (2.5 mg/kg) are administered orally. After 21 days, the amounts (mg/dl) of the triglyceride (TG), the total cholesterol (tot.-C), the high density lipoprotein cholesterol (HDL-C), the low density lipoprotein cholesterol (LDL-C) and the serum glucose of six mice for each group are measured as shown in Tables 2 and 3.

[2] = system: STZ-induced diabetic rats; test: Change of insulin and fasting blood glucose after administration, STZ-induced diabetic rats; type: in vivo; conditions: 4 mg/kg
Method: Nateglinide, repaglinide or the placebo is administered on day 1 before one hour of the breakfast, and the KMUP-1/KMUP-1-Nateglinide or KMUP-1-Repaglinide are orally administered at 1, 2, 3, 4, 5 and 6 hrs respectively. The amount of the serum glucose (mg/dl), the amount of the serum insulin (mg/dl), the body weight (g) and the change of the body weight are measured.

H1N1 virus = type: cell-based; conditions: MDCK culture infected with H1N1 virus, n=6
RAW 264.7 cells = test: Inhibition of RANKL-induced osteoclast differentiation (TRAP staining); type: cell-based; conditions: 5 μM, 5 days
C57BL/6J mice [3] = test: The amount of the serum glucose and insulin in C57BL/6J mice (high-fat diet); type: in vivo; conditions: 1 mg/kg orally, HFD, after 21 days
Method: as §1

[4] = system: monocrotaline (MCT)-treated rats; test: Pulmonary artery blood pressure in monocrotaline (MCT)-treated rats; type: in vivo, male Wistar rats; conditions: 2.5 mg/kg/day p.o.
Method: 5. the monocrotaline (MCT)-treated rats show the […] pulmonary aterial hypertension
Pulmonary aterial hypertension in MCT-treated rats is caused on day 21 after the intraperitoneal injection. Orally administered KMUP-1 HCl salt (2.5 mg/kg), simvastatin (2.5 mg/kg), KMUP-1-nicotinic acid complex (2.5 mg/kg), KMUP-1-Citric acid complex (2.5 mg/kg), KMUP-1-Simvastatinic acid complex (2.5 mg/kg) and KMUP-1-γ-Polyglutamic acid complex (2.5 mg/kg), or the inhalated KMUP-1-PGI2 (0.1 mM) every day may inhibit the male Wistar rats treated with MCT, which show the effect of decreasing the pulmonary artery blood pressure (PABP).

TGF-β = test: Bleomycin-induced lung fibrosis in mice, TGF-β expression by EIA; type: in vivo; conditions: 2.5 mg/kg orally, bleomycin 60 mg/kg
Method: 6. KMUP-1 salts inhibit the lung fibrosis in mice induced by bleomycin (BM) mediated via transforming growth factor beta (TGF-β) expression in lung The increased amount of the synthetic collagen and the generation of the macrophage in alveolus may facilitate the formulation of TGF-β, and the expression of TGF-β is looked as a biomarker of the lung fibrosis. […] The state of the TGF-β expression in the irrigation solution is measured by the enzyme immunoassay (EIA).

[5] = system: testosterone-induced mice; test: Prostate hypertrophy (BPH) in testosterone-induced mice; type: in vivo; conditions: 2.5 mg/kg, testosterone 3 mg/kg/day for 4 weeks, day 28, n=6
Method: The testosterone (TS, 3 mg/kg/day) is administered for 4 weeks for inducing BPH in mice, which combines with KMUP-1 HCl salt (2.5 mg/kg), KMUP-1-Citric acid (2.5 mg/kg) and KMUP-1-Nicotinic acid (2.5 mg/kg), and the ratio of hypertrophy (g)/body weight (g) is measured at day 28 (n=6).

Row | Compound | The change of the fasting blood glucose after administration ([2]; 1 hr) [mg/dL] | The change of the insulin after administration ([2]; 1 hr) [U/mL] | The change of the fasting blood glucose after administration ([2]; 2 hr) [mg/dL] | The change of the insulin after administration ([2]; 2 hr) [U/mL] | The change of the insulin after administration ([2]; 3 hr) [U/mL] | The change of the insulin after administration ([2]; 4 hr) [U/mL] | The change of the fasting blood glucose after administration ([2]; 6 hr) [mg/dL] | The change of the insulin after administration ([2]; 6 hr) [U/mL] | further results
1 | Cc1ccc(C)c(OCCCC(C)(C)C(=O)O)c1.Cn1c(=O)c2c(ncn2CCN2CCN(c3ccccc3Cl)CC2)n(C)c1=O [KMUP-1-Gemfibrozil, KMUP-1-gemfibrozil complex] | – | – | – | – | – | – | – | – | HDL-C (C57BL/6J mice [1]; 2.5 mg/kg orally): 98.7 ± 1.8 mg/dL; LDL-C (C57BL/6J mice [1]; 2.5 mg/kg orally): 18.2 ± 1.8 mg/dL; TG (C57BL/6J mice [1]; 2.5 mg/kg orally): 79.2 ± 4.6 mg/dL; tot.-C (C57BL/6J mice [1]; 2.5 mg/kg orally): 130.7 ± 1.7 mg/dL
2 | CC(C)(Oc1ccc(C(=O)c2ccc(Cl)cc2)cc1)C(=O)O.Cn1c(=O)c2c(ncn2CCN2CCN(c3ccccc3Cl)CC2)n(C)c1=O [KMUP-1-Fibric acid, KMUP-1-fibric acid complex] | – | – | – | – | – | – | – | – | HDL-C (C57BL/6J mice [1]; 2.5 mg/kg orally): 98.4 ± 1.3 mg/dL; LDL-C (C57BL/6J mice [1]; 2.5 mg/kg orally): 18.4 ± 2.2 mg/dL; TG (C57BL/6J mice [1]; 2.5 mg/kg orally): 80.2 ± 3.2 mg/dL; tot.-C (C57BL/6J mice [1]; 2.5 mg/kg orally): 132.7 ± 1.3 mg/dL
3 | CC(C)[C@H]1CC[C@H](C(=O)N[C@H](Cc2ccccc2)C(=O)O)CC1 [Nat, Nateglinide, reference compound] | 4.7 ± 0.6 | 42.5 ± 4.2 | 0.3 ± 0.2 | 49.3 ± 3.4 | 24.4 ± 4.6 | 17.8 ± 2.8 | -0.2 ± 0.3 | 4.4 ± 0.6 | –
4 | CC[C@H](C)C(=O)O[C@H]1C[C@H](O)C=C2C=C[C@H](C)[C@H](CC[C@@H](O)C[C@@H](O)CC(=O)O)[C@H]21.Cn1c(=O)c2c(ncn2CCN2CCN(c3ccccc3Cl)CC2)n(C)c1=O [KMUP-1-Pravastatinic acid, KMUP-1-Pravastatinic acid complex] | – | – | – | – | – | – | – | – | IC50 (H1N1 virus): 2.1 µg/mL
5 | KMUP-1-Repaglinide Complex | 5.7 ± 0.8 | 39.5 ± 3.8 | 0.5 ± 0.2 | 47.3 ± 2.2 | 27.4 ± 2.8 | 14.8 ± 3.7 | -0.3 ± 0.1 | 2.8 ± 0.5 | –
6 | Cn1c(=O)c2c(ncn2CCN2CCN(c3ccccc3Cl)CC2)n(C)c1=O [KMUP-1, 7-[2-[4-(2-chlorobenzene)piperazinyl]ethyl]-1,3-dimethylxanthine] | – | – | – | – | – | – | – | – | TRAP-positive cell count caused by RANKL (in words) (RAW 264.7 cells): suppressed the TRAP-positive cell count
7 | Cn1c(=O)c2c(ncn2CCN2CCN(c3ccccc3Cl)CC2)n(C)c1=O.O=C(O)c1cccnc1 [KMUP-1-Nicotinic acid, KMUP-1-Nicotinic acid salt] | – | – | – | – | – | – | – | – | HDL-C (C57BL/6J mice [1]; 5 mg/kg orally): 97.98 ± 3.4 mg/dL; LDL-C (C57BL/6J mice [1]; 5 mg/kg orally): 13.8 ± 1.2 mg/dL; TG (C57BL/6J mice [1]; 5 mg/kg orally): 80.75 ± 7.9 mg/dL; tot.-C (C57BL/6J mice [1]; 5 mg/kg orally): 130 ± 4.1 mg/dL; The amount of serum glucose (C57BL/6J mice [3]): 123.5 ± 2.5 mg/dL; PABP [4]: 12 ± 2.6 mmHg; Changing % of the lung TGF-β (TGF-β): 42 ± 3.8 %; hypertrophy (g)/body weight (g) [5]: 0.19 ± 0.07
8 | CCOc1cc(CC(=O)N[C@@H](CC(C)C)c2ccccc2N2CCCCC2)ccc1C(=O)O [Rep, Repaglinide, reference compound] | 3.2 ± 0.8 | 47.5 ± 3.7 | 0.6 ± 0.1 | 49.3 ± 3.4 | 24.4 ± 4.6 | 19.8 ± 3.6 | -0.1 ± 0.4 | 4.8 ± 0.4 | –
